Test results reported in USRE35593E (priority 1989, dated 1997).
Where a name gives a salt, the structure may show the parent alone. Read-outs that look alike come from different tables or passages of the source.

Tests used:
muscarinic receptors [1] = experiment: Radio ligand binding: displacement of muscarinic agonist 3H-OXO-M (3H-Oxotremorine-M), rat cerebral cortex membranes; set-up: species or system Hooded Lister rats; settings: 2 nM 3H-OXO-M, 2 mM magnesium chloride, 37° C., 30 min, pH 7.7, non-specific: 10 μM Oxotremorine
muscarinic receptors [2] = type: binding, Hooded Lister rats; settings: 0.27 nM 3H-QNB; rat cerebral cortex; 37° C., 30 min; pH 7.7; non-specific: 1 μM Atropine sulphate

SMILES	IC50 (muscarinic receptors [1])	IC50 (muscarinic receptors [2])
CON=C(Cl)C1CN2CCC1CC2 (racemic) [Example E1, (±) 1-Azabicyclo[2.2.2]oct-3-yl-N-methoxycarboximidoyl chloride oxalate salt]	93 nM	897 nM
CON=C(OC)C1CN2CCC1CC2 (racemic) [Example E2, (±) 1-Azabicyclo2.2.2]oct-3-yl-N-methoxycarboximidic acid methyl ester oxidate salt]	1000 nM	8000 nM
C#CC(=NOC)C12CCCN(CC1)C2 (racemic) [Example E4, (±) 1-Azabicyclo[3.2.1]oct-5-yl ethynyl ketone O-methyloxime oxalate salt]	162 nM	1460 nM
CON=C(Cl)C12CCCN(CC1)C2 (racemic) [Example E5, (±) 1-Azabicyclo[3.2.1]oct-5-yl-N-methoxycarboximidoyl chloride oxalate salt]	72 nM	3820 nM
CON=C(C#N)C12CCCN(CC1)C2 (racemic) [Example E6, (±) α-(Methoxyimino)-α-(1-azabicyclo[3.2.1]oct-5-yl) acetonitrile hydrochloride salt]	114 nM	251 nM
CON=C(Br)C12CCCN(CC1)C2 (racemic) [Example E7, (±) 1-Azabicyclo[3.2. ]oct-5-yl-N-methoxycarboximidonyl bromide oxalate salt]	190 nM	2850 nM
CON=C(F)C1CN2CCC1CC2 (racemic) [Example E10, (±) 1-Azabicyclo[2.2.2]oct-3-yl-N-methoxycarboximidoyl fluoride oxalate salt]	34 nM	2110 nM
CON=C(C1CC1)C1CN2CCC1CC2 (racemic) [Example E15, (±) 1-Azabicyclo[2.2.2]oct-3-yl cyclopropyl ketone trans-O-methyloxime hydrochloride salt]	386 nM	22200 nM
CON=C(Cl)[C@H]1CN2CC[C@H]1C2 (relative stereo) [Example E8, (±) exo-1-Azabicyclo[2.2.1]hept-3-yl-N-methoxycarboximidoyl chloride oxalate salt]	64 nM	3330 nM
CON=C(C#N)[C@H]1CN2CC[C@H]1C2 (relative stereo) [Example E9, (±) exo-α-(Methoxyimino)-α-(1-azabicyclo[2.2.1]hept-3-yl)acetonitrile hydrochloride salt]	25 nM	2100 nM
CON=C(Cl)[C@@H]1CN2CC[C@H]1C2 (relative stereo) [Example E16, (±) endo-1-Azabicyclo[2.2.1]hept-3-yl -N-methoxycarboximidoyl chloride oxalate salt]	99 nM	7000 nM
CON=C(C#N)[C@@H]1CN2CC[C@H]1C2 (relative stereo) [Example E17, (±) endo-α-(Methoxyimino)-α-(1-azabicyclo[2.2.1]hept-3-yl)acetonitrile oxalate salt]	16 nM	3600 nM
CON=C(Br)[C@H]1CN2CC[C@H]1C2 (relative stereo) [Example E18, (±) exo- and endo-1-Azabicyclo[2.2.1]hept-3-yl-N-methoxycarboximidoyl bromide oxalate salts]	46 nM	11000 nM
CON=C(Br)[C@@H]1CN2CC[C@H]1C2 (relative stereo) [Example E19, (±) exo- and endo-1-Azabicyclo[2.2.1]hept-3-yl-N-methoxycarboximidoyl bromide oxalate salts]	127 nM	3600 nM
CON=C(F)[C@H]1CN2CC[C@H]1C2 (relative stereo) [Example E20, (±) exo-1-Azabicyclo[2.2.1]hept-3-yl-N-methoxy carboximidoyl fluoride oxalate salt]	11 nM	3000 nM
CCON=C(Cl)[C@H]1CN2CC[C@H]1C2 (relative stereo) [Example E21, (±) exo-1-Azabicyclo[2.2.1]hept-3-yl-N-ethoxy carboximidoyl chloride oxalate salt]	570 nM	15500 nM
CCON=C(C#N)[C@H]1CN2CC[C@H]1C2 (relative stereo) [Example E22, (±) exo-α-(Ethoxyimino)-α-(1-azabicyclo[2.2. 1]hept-3-yl)acetonitrile oxalate salt]	233 nM	10000 nM
C#CCON=C(Cl)[C@H]1CN2CC[C@H]1C2 (relative stereo) [Example E24, (±) exo- and endo-1-Azabicyclo[2.2.1]hept-3-yl-N-prop-2-ynyloxycarboximidoyl chloride oxalate salts]	112 nM	2100 nM
CON=C(CC#N)[C@H]1CN2CC[C@H]1C2 (relative stereo) [Example E27, (±) exo- and endo-3-Oxo-3-(1-azabicyclo[2.2.1]hept-3-yl)propionitrile-O-methyl oxime oxalate salts]	71 nM	1100 nM
CON=C(CC#N)[C@@H]1CN2CC[C@H]1C2 (relative stereo) [Example E28, (±) exo- and endo-3-Oxo-3-(1-azabicyclo[2.2.1]hept-3-yl)propionitrile-O-methyl oxime oxalate salts]	750 nM	16500 nM
CON=C(Cl)C12CCN(CC1)C2 [Example E11, 1-Azabicyclo[2.2.1]hept-4-yl-N-methoxycarboximidoyl chloride oxalate salt]	38 nM	9000 nM
CON=C(C#N)C12CCN(CC1)C2 [Example E12, α-(Methoxyimino)-α-(1-azabicyclo[2.2.1]hept-4-syl)acetonitrilehydrochloride salt]	21 nM	2000 nM
CON=C(Br)C12CCN(CC1)C2 [Example E13, 1-Azabicyclo[2.2.1]hept-4-yl-N-methoxycarboximidoyl bromide oxalate salt]	170 nM	10000 nM
CON=C(F)C12CCN(CC1)C2 [Example E14, 1-Azabicyclo[2.2.1]hept-4-yl-N-methoxycarboximidoyl fluoride oxalate salt]	48 nM	15500 nM
